Assay [1] concerns the target T1, D4 receptor (Homo sapiens, UniProt P21917).
T1 construct: expressed in transfected cells; host or cells: CHO cells
T1 sequence (P21917 1-419): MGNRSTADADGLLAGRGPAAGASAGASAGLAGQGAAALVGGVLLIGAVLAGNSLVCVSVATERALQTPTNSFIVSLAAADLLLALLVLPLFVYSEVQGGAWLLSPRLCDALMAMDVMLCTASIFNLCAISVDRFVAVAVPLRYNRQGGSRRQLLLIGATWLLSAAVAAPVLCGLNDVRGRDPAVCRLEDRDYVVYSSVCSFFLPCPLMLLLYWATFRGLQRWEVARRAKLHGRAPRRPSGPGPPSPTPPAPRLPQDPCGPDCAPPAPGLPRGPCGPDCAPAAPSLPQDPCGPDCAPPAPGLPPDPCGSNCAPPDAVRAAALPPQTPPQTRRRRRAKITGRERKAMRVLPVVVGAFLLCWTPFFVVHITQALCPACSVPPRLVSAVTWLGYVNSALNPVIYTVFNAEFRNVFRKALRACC
Nature of the assay: [14C] formate-labelled phospholipid methylation in CHO/D4 cells. Type of assay: cell-based. The settings on record: absence of agonist.
Procedure: CHO cells transfected with the D4 receptor gene were fed with minimum essential medium (alpha modifications, with or without nucleosides) (pH 7.2) containing 2 mM L-glutamine, W/G418 antibiotic (400 mg/L), donor horse serum (2.5%), fetal bovine serum (2.5%), penicillin/streptomycin/fungizone (1%), CuSO4 (10^−6M). Cells (200,000 cells/well) were plated in 6-well- plates and placed in 5% CO2 incubator at 37° C.
Two-day-old confluent, cultured D4-transfected CHO cells were used for assay. The pH of Hank's balanced buffer (HBSS) was adjusted to pH 7.4 using sodium bicarbonate buffer. [^14C]-formic acid (1 μCi/ml) and pharmacological agents were added to HBSS. Feeding medium was removed from the well and then 600 μl of the HBSS solution with the radiolabelled formic acid (warmed to 37° C.) was added to each well of 6-well-plates. Plates were incubated at 37° C. for 30 minutes in the culture incubator. The reaction was stopped by washing once with ice-cold PBS (pH 7.4) and, after aspirating off the HBSS, 500 μl of 10% trichloroacetic acid (TCA) was added. Cells were harvested by scraping with a cell scraper and transferred into a plastic microcentrifuge tube. […] CPM values were normalized to the protein content of each sample and expressed as the mean +/− S.E.M. for the group. Differences between groups were analyzed by a t-test with p<0.05 as the criterion for significance.

Assay [2] concerns the target T2, dopamine D4 receptors (Homo sapiens, UniProt P21917).
T2 sequence (P21917 1-419): T1 sequence (P21917 1-419)
Particulars: Schlacter et al., Soc. Neurosci. Abstr. 1995; read-out: reported KD; cited from earlier work.

Assay [3] deals with lymphocytes. The settings on record: for stimulation of phospholipid methylation: dopamine (10 μM) and GTP (1 μM); for inhibition of phospholipid methylation below basal: haloperidol 1 μM with dopamine/GTP. An excerpt:
In an early hypothesis (“the transmethylation hypothesis”), a defect resulting in the formation of hallucinogens was proposed. […] To determine whether D4 receptor-dependent phospholipid methylation was altered in individuals with schizophrenia, males ages 27-70 with well documented schizophrenia by DSM-IV criteria, were studied and compared with normal controls.
To determine whether D4 receptor-dependent phospholipid methylation was altered in schizophrenia, the labelling of phospholipids by [^3H]-methyl-methionine in lymphocytes obtained from people with schizophrenia (as defined by DSM IV diagnostic criteria Diagnostic and Statistical Manual of Mental Disorders (4th Edition), American Psychiatric Association, Washington, D.C., […], pp. 759-764) under medical treatment) was measured as compared to lymphocytes from healthy controls. Lymphocytes were isolated as previously described (De La Rosa et al., J. Biol. Chem. 267:10699, 1992) and aliquots of 4×10^6 cells were resuspended in Hank's balanced salt solution containing 8 μCi/ml [^3H-methyl]methionine for 60 min. […] Incorporation of [^3H-methyl] label into phospholipids was determined as described in Example I.

Assay [4] relates to SK-N-MC cells. The settings on record: SK-N-MC cells grown in the presence of nucleosides.
[5] abbreviates: lymphocytes of schizophrenia patients.

Like-named read-outs stand apart in the source and are kept apart here.

This is an account of results in patent US6773892B1, “Methods of identifying and determining the effectiveness of therapeutic processes or agents for the treatment of schizophrenia and related disorders” (Northeastern University, priority 1997, dated 2004).

By IC50 is commonly meant the concentration at which inhibition is half-maximal. What is called Kd is the free concentration of one partner at which half of the binding sites on the other are occupied at equilibrium, for simple one-to-one binding.

Take `CC(C)Oc1cccnc1N(C)C1CCN(Cc2ccccc2)CC1` [U-101,958]: in assay [1] (CHO/D4 cells grown in nucleoside-free medium), the “effect on [14C] formate-labelled phospholipid methylation, FIG. 3b” value is on record as “dose-dependent inhibition”. Besides, the IC50 in assay [1] (CHO/D4 cells, read-out: IC50 of inhibition of phospholipid methylation) was 0.2 nM. Further, the dissociation constant (Kd) in assay [2] was 1 nM.

Consider `NCCc1ccc(O)c(O)c1` [dopamine], for which the results for the “stimulation of phospholipid methylation” value in assay [3] (lymphocytes of normal controls) and in assay [3] (setting [5]) were 30% and 165%, respectively. Moreover, in assay [4], the “effect on [14C] formate-labelled phospholipid methylation, FIG. 3c” value is listed as “dose-dependent dopamine stimulation”.

`O=C(CCCN1CCC(O)(c2ccc(Cl)cc2)CC1)c1ccc(F)cc1` [haloperidol]: the “effect on methyl incorporation into phospholipids, FIG. 4B” value in assay [3] (both control and schizophrenia lymphocytes, dopamine 10 μM and GTP 1 mM, with or without haloperidol 1 μM) is on record as “significant decrease”. Besides, the “inhibition of phospholipid methylation below basal” value was 25% in assay [3] (lymphocytes of normal controls) and 39% in assay [3] (setting [5]).
